Measurements from paper PMC11772769, “Selective cargo and membrane recognition by SNX17 regulates its interaction with Retriever” (EMBO Reports, 2024).
Substitutions are numbered along the chain they refer to. Read-outs that look alike come from different tables or passages of the source. Where no end group is shown, it is not given here.

Assays:
[1] = molecular target: T1, MBP-SNX17 WT (Homo sapiens, UniProt Q15036); test: Fluorescence anisotropy binding of 5-FAM peptides to MBP-SNX17 wild-type
T1 construct: M protein marker, R Retriever complex, FL full-length; His (N, cleaved yes); made in house; host or cells: Escherichia coli BL21(DE3)
T1 sequence (Q15036 1-470): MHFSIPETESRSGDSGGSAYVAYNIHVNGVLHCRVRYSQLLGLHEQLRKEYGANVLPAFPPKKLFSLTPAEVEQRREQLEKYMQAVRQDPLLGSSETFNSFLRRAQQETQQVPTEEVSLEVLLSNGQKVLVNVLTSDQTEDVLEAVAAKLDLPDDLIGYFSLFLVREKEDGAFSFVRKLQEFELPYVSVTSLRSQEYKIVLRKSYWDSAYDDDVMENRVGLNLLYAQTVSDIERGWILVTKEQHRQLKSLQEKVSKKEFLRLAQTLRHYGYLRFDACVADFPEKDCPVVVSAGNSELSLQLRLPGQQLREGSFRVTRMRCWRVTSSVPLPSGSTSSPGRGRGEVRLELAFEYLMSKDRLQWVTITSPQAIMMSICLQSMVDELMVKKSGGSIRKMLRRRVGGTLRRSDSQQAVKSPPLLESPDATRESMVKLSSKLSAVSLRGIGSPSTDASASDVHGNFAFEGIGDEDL
Procedure: (§1) Lyophilized peptides were resuspended in 100 mM Hepes pH 8.0 at 5 mg/ml and further diluted in the assay buffer (50 mM Hepes pH 7.5, 300 mM NaCl, and 1 mM DTT). […] The mixture was incubated at 25 °C for at least 30 min and then transferred to 96 Flat Black plates. Fluorescence anisotropy was measured at 25 °C using Spark 10M Plate Reader (Tecan) with a 485/20 excitation filter and a 535/35 emission filter. The dissociation constants were calculated in GraphPad Prism by nonlinear regression fitting of the experimental data to a one-site total binding model. The final KD measurement is the mean of at least two independent experiments.

[2] = molecular target: T2, MBP-SNX17V380D (Homo sapiens, UniProt Q15036, V380D); test: Fluorescence anisotropy binding of 5-FAM peptides to MBP-SNX17 V380D
T2 construct: M protein marker, R Retriever complex, FL full-length; His (N, cleaved yes); made in house; host or cells: Escherichia coli BL21(DE3)
T2 sequence (Q15036 1-470 V380D): T1 sequence (Q15036 1-470) with V380D
Procedure: as §1

In the case of KLITYDNPAYEGID [L2 14-mer], the Kd [1] is reported as 1.1 ± 0.1 µM, the Kd ([2]; 0.1 μM 5-FAM peptide, pH 7.5, 300 mM NaCl, 25 °C, one-site total binding, Bmax fixed at 240, three biological replicates (Fig. 4E)) is reported as greater than 32 µM and the Kd ([2]; 5-FAM peptide, replicate Y1, sheet KD-L2-14-mer, unit inferred, read-out: KD MBP-SNX17V380D) is reported as greater than 32 µM. For the same sequence, the Kd ([2]; 5-FAM peptide, replicate Y2, sheet KD-L2-14-mer, unit inferred, read-out: KD MBP-SNX17V380D) was greater than 32 µM and the Kd ([2]; 5-FAM peptide, replicate Y3, sheet KD-L2-14-mer, unit inferred, read-out: KD MBP-SNX17V380D) was greater than 32 µM.
